These results are taken from PubChem BioAssay (NCI).

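Assay format: 96-well plates, 48-hour exposure. GI50 is the concentration that inhibits growth by half. TGI marks complete inhibition of growth.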

Some test systems named below: HCT-15 colon; SF-539 CNS; HCT-116 colon; HL-60(TB) leukemia; UO-31 renal; SW-620 colon; NCI-H460 lung; OVCAR-5 ovarian; HOP-92 NSCLC; NCI-H522 lung.
Holding throughout (test): NCI-60 cell line screen, 48 h

For `C/C(=C1\C(=O)Nc2ccccc21)c1cccc(/C(C)=C2/C(=O)Nc3ccccc32)n1`, the GI50 in the test on HCT-15 colon was 4.21 µM; with SF-539 CNS, 2.49 µM; in the test on HCT-116 colon it was 9.93 µM; with HL-60(TB) leukemia, 16 µM; with UO-31 renal, 24.5 µM; in the test with SW-620 colon, 7.69 µM. The GI50 in the test on NCI-H460 lung was 5.08 µM; with OVCAR-5 ovarian, 48.4 µM; in the test with HOP-92 NSCLC it was 15.7 µM; in the test on NCI-H522 lung it was 9.59 µM. The TGI was 34.9 µM in the test with HCT-15 colon; 7.99 µM in the test with SF-539 CNS; above 100 µM in the test with HCT-116 colon; above 100 µM with HL-60(TB) leukemia; above 100 µM in the test on UO-31 renal; above 100 µM with SW-620 colon. Moreover, the TGI with NCI-H460 lung was above 100 µM; in the test with OVCAR-5 ovarian it was above 100 µM; in the test with HOP-92 NSCLC, 85.3 µM; with NCI-H522 lung it was 99.5 µM.
In the case of `O=C(Nc1ccc(Nc2ccc3c(c2)C(=O)c2ccccc2C3=O)c2c1C(=O)c1ccccc1C2=O)c1ccccc1`, the TGI with HCT-15 colon, with SF-539 CNS, in the test on HCT-116 colon, in the test with HL-60(TB) leukemia, with UO-31 renal and in the test with SW-620 colon was above 100 µM in each case. In addition, the TGI with NCI-H460 lung was 35.4 µM; in the test with OVCAR-5 ovarian it was above 100 µM; in the test on HOP-92 NSCLC, above 100 µM; in the test with NCI-H522 lung, above 42.1 µM.
For the compound `Cc1cccc(-c2nc(=S)[nH][nH]2)c1`, the TGI in the test with HCT-15 colon, with SF-539 CNS, in the test with HCT-116 colon, in the test on HL-60(TB) leukemia, in the test with UO-31 renal and in the test with SW-620 colon was above 100 µM throughout. The TGI in the test with NCI-H460 lung, with OVCAR-5 ovarian, in the test on HOP-92 NSCLC and with NCI-H522 lung was above 100 µM in each case.
With `COc1cc(OC)c(OC)cc1/C=C/c1ccccn1`, the TGI in the test on HCT-15 colon, in the test with SF-539 CNS, in the test on HCT-116 colon, in the test on HL-60(TB) leukemia, in the test with UO-31 renal and in the test on SW-620 colon was above 10 µM throughout. Further, the TGI with NCI-H460 lung, in the test with OVCAR-5 ovarian, in the test on HOP-92 NSCLC and with NCI-H522 lung was above 10 µM in each case.
In the case of `C=CCn1c(SCC(=O)Nc2ccc(C(=O)/C=C/c3cc(OC)c(OC)c(OC)c3)cc2)nnc1-c1cc(OC)c(OC)c(OC)c1`, the GI50 in the test with HCT-15 colon was 1.86 µM; in the test on SF-539 CNS it was 2.52 µM; in the test with HCT-116 colon it was 2.09 µM; in the test with HL-60(TB) leukemia, 2.88 µM; in the test with UO-31 renal, 4.18 µM; with SW-620 colon, 3.37 µM. Further, the GI50 with NCI-H460 lung was 3.76 µM; with OVCAR-5 ovarian, 3.97 µM; in the test with HOP-92 NSCLC, 12.5 µM; with NCI-H522 lung, 6.89 µM. Also, the TGI came to 5.61 µM in the test on HCT-15 colon; 8.83 µM with SF-539 CNS; 5.12 µM with HCT-116 colon; 33 µM with HL-60(TB) leukemia; 17.5 µM in the test on UO-31 renal; 16 µM in the test with SW-620 colon. Further, the TGI stood at 14.5 µM with NCI-H460 lung, 28.1 µM in the test with OVCAR-5 ovarian, 56.6 µM in the test with HOP-92 NSCLC and 27.2 µM in the test with NCI-H522 lung.
In the case of `O=C(O)C1CCCN1` (stereo not given), the TGI with HCT-15 colon, in the test on SF-539 CNS, with HCT-116 colon, in the test on HL-60(TB) leukemia, with UO-31 renal and with SW-620 colon was above 100 µM in each case. For the same compound, the TGI with NCI-H460 lung, with OVCAR-5 ovarian, with HOP-92 NSCLC and in the test on NCI-H522 lung was above 100 µM in each case.
Take `CCn1c(-c2nonc2N)nc2cnc(Oc3cccc(NC(=O)c4ccc(OCCN5CCOCC5)cc4)c3)cc21`: the GI50 in the test on HCT-15 colon is 2.16 µM; with SF-539 CNS, 0.929 µM; in the test with HCT-116 colon, 1.81 µM; with HL-60(TB) leukemia, 10.3 µM; with UO-31 renal it was 0.0089 µM; in the test with SW-620 colon it was 4.57 µM. The GI50 was 2.3 µM in the test with NCI-H460 lung, 5.22 µM in the test with OVCAR-5 ovarian, 0.0025 µM with HOP-92 NSCLC and 1.41 µM with NCI-H522 lung. For the same compound, the TGI was above 25 µM in the test with HCT-15 colon; above 25 µM in the test with SF-539 CNS; above 25 µM in the test on HCT-116 colon; above 25 µM in the test with HL-60(TB) leukemia; 5.07 µM in the test with UO-31 renal; above 25 µM with SW-620 colon. The TGI in the test on NCI-H460 lung, in the test on OVCAR-5 ovarian, with HOP-92 NSCLC and in the test with NCI-H522 lung was above 25 µM in each case.
Turning to `N#CSc1c[nH]c2ccc(/C=C/C(=O)/C=C(O)/C=C/c3ccc4[nH]cc(SC#N)c4c3)cc12`, the GI50 in the test with HCT-15 colon was 0.416 µM; in the test on SF-539 CNS, 2.87 µM; in the test on HCT-116 colon, 0.296 µM; with HL-60(TB) leukemia, 0.902 µM; in the test with UO-31 renal, 0.344 µM; in the test on SW-620 colon, 0.668 µM. Besides, the GI50 with NCI-H460 lung was 3.01 µM; in the test on OVCAR-5 ovarian, 3.6 µM; in the test on HOP-92 NSCLC it was 1.63 µM; in the test on NCI-H522 lung, 0.886 µM. The TGI with HCT-15 colon came to 2.11 µM; in the test with SF-539 CNS, 10.6 µM; with HCT-116 colon, 1.19 µM; in the test with HL-60(TB) leukemia, 4.34 µM; with UO-31 renal, 1.66 µM; in the test with SW-620 colon, 2.35 µM. In addition, the TGI with NCI-H460 lung came to 11.2 µM; with OVCAR-5 ovarian it was 14.8 µM; in the test with HOP-92 NSCLC it was 4.46 µM; with NCI-H522 lung, 2.79 µM.
With `COC(=O)C1=C(C(=O)OC)C23CC4CCC2(C(=O)C1O3)C4(C)C` (stereo not given), the TGI in the test on HCT-15 colon is above 100 µM; with SF-539 CNS it was above 100 µM; in the test with HCT-116 colon, above 100 µM; with HL-60(TB) leukemia, 52.6 µM; in the test with UO-31 renal it was above 100 µM; in the test with SW-620 colon, above 100 µM. Moreover, the TGI with NCI-H460 lung is above 100 µM; in the test with OVCAR-5 ovarian it was above 100 µM; with HOP-92 NSCLC, above 100 µM; in the test with NCI-H522 lung, 48.8 µM.
On to `CCN(Cc1ccccc1)c1ccc(/C=C2\COc3ccccc3C2=O)cc1`, for which the GI50 is 106 µM in the test on HCT-15 colon; above 1000 µM in the test on SF-539 CNS; 270 µM in the test on HCT-116 colon; 221 µM in the test on HL-60(TB) leukemia; 286 µM with UO-31 renal; 146 µM with SW-620 colon. In addition, the GI50 with NCI-H460 lung is above 1000 µM; in the test with OVCAR-5 ovarian, above 1000 µM; in the test on HOP-92 NSCLC, 553 µM; in the test on NCI-H522 lung, 156 µM. Moreover, the TGI with HCT-15 colon, in the test on SF-539 CNS, in the test with HCT-116 colon, with HL-60(TB) leukemia, in the test on UO-31 renal and in the test with SW-620 colon was above 1000 µM each time. Moreover, the TGI in the test on NCI-H460 lung, in the test with OVCAR-5 ovarian, in the test on HOP-92 NSCLC and with NCI-H522 lung was above 1000 µM in each case.
Consider `COc1ccc(-c2nn3ncccc3c2-c2ccnc(Nc3ccc(F)c(F)c3)n2)cc1`, for which the GI50 in the test with HCT-15 colon was 8.77 µM; in the test on SF-539 CNS, above 19.2 µM; with HCT-116 colon it was 7.15 µM; with HL-60(TB) leukemia, 13.2 µM; in the test with UO-31 renal, 5.8 µM; with SW-620 colon, 17 µM. Besides, the GI50 is 7.4 µM in the test on NCI-H460 lung, 11.6 µM in the test with OVCAR-5 ovarian, 3.99 µM in the test with HOP-92 NSCLC and 8.18 µM with NCI-H522 lung. The TGI was above 25 µM in the test on HCT-15 colon; above 25 µM with SF-539 CNS; above 25 µM in the test on HCT-116 colon; above 25 µM with HL-60(TB) leukemia; above 20.9 µM in the test on UO-31 renal; above 25 µM in the test on SW-620 colon. The TGI is above 25 µM in the test on NCI-H460 lung, above 25 µM in the test with OVCAR-5 ovarian, above 25 µM with HOP-92 NSCLC and above 23.6 µM in the test on NCI-H522 lung.
`C=C(C)[C@@H]1CC[C@]2(C(=O)OC)CC[C@]3(C)[C@H](CC[C@@H]4[C@@](C)(CCc5nn[nH]n5)[C@H](C(=C)C)CC[C@]43C)[C@@H]12`: the GI50 is 13.2 µM with HCT-15 colon; 16.5 µM in the test with SF-539 CNS; 26.9 µM in the test with HCT-116 colon; 19 µM with HL-60(TB) leukemia; 10.9 µM in the test on UO-31 renal; 19.3 µM in the test with SW-620 colon. Moreover, the GI50 with NCI-H460 lung was 20.5 µM; in the test on OVCAR-5 ovarian it was 19.4 µM; in the test with HOP-92 NSCLC, 8.08 µM; in the test with NCI-H522 lung it was 17.2 µM. In addition, the TGI in the test on HCT-15 colon was 35.7 µM; in the test with SF-539 CNS it was 30.7 µM; in the test with HCT-116 colon, above 100 µM; in the test on HL-60(TB) leukemia, 62.3 µM; in the test with UO-31 renal, 23 µM; in the test on SW-620 colon it was 46 µM. Moreover, the TGI in the test with NCI-H460 lung amounted to 44 µM; in the test with OVCAR-5 ovarian, 35.9 µM; in the test on HOP-92 NSCLC, 22.3 µM; with NCI-H522 lung, 51.5 µM.
As to `Cc1cc(NC(=O)NCCCOc2ccc(N3C(N)=NC(N)=NC3(C)C)cc2Cl)ccc1S(=O)(=O)F`, the GI50 with HCT-15 colon was 39.2 µM; in the test on SF-539 CNS it was 2.85 µM; in the test on HCT-116 colon it was 0.37 µM; in the test on HL-60(TB) leukemia, 0.647 µM; in the test with UO-31 renal, above 82.4 µM; with SW-620 colon it was 0.373 µM. The GI50 with NCI-H460 lung was 0.259 µM; in the test on OVCAR-5 ovarian, 0.883 µM; in the test with HOP-92 NSCLC, 2.85 µM; with NCI-H522 lung, 1.11 µM. Also, the TGI was above 100 µM in the test on HCT-15 colon; 31.7 µM with SF-539 CNS; above 100 µM with HCT-116 colon; 28.9 µM with HL-60(TB) leukemia; above 100 µM with UO-31 renal; above 100 µM in the test with SW-620 colon. Also, the TGI with NCI-H460 lung is 14.7 µM; in the test with OVCAR-5 ovarian, above 100 µM; in the test on HOP-92 NSCLC, 45.6 µM; with NCI-H522 lung, 25.2 µM.
